{
  "source": "patent US10617680B2",
  "about": "(CELGENE QUANTICEL RESEARCH, INC., priority 2017, dated 2020)",
  "data": [
    {"target": "CBP (Homo sapiens (Human), UniProt Q92793)", "sequence (Q92793 1081-1197)": "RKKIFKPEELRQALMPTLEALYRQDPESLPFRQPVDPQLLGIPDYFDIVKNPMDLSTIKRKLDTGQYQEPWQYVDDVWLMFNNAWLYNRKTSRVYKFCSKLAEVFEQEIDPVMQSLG", "experiment": "In vitro CBP inhibition (AlphaScreen, biotinylated H4-tetraacetyl peptide)", "assay_type": "binding", "details": "not given", "outline": "(§1)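 His-tagged CBP expressed in E. coli (50 nM final) incubated with biotinylated H4K5/8/12/16(Ac) peptide (20 nM final) in 50 mM HEPES pH 7.3, 10 mM NaCl, 0.25 mM TCEP, 0.1% BSA, 0.005% Brij-35, 0.4% DMSO, 20 min at room temp.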", "units": {"IC50": "µM"}, "values": [
      {"compound": "CCOc1cc(=O)n(C)cc1-c1cn(Cc2ccccc2)nc1NC(C)=O", "note": "[Example 187, N-[1-Benzyl-4-(4-ethoxy-1-methyl-6-oxo-1,6-dihydro-pyridin-3-yl)-1H-pyrazol-3-yl]-acetamide]", "IC50": "0.5 to 5"},
      {"compound": "Cn1cc(-c2cnn(C(c3ccccc3)C3CC3)c2)ccc1=O", "note": "(stereo not drawn) [Example 2]", "IC50": "0.5 to 5"}
    ]},
    {"target": "CBP (Homo sapiens (Human), UniProt Q92793)", "experiment": "In vitro CBP inhibition (AlphaScreen, biotinylated H4-tetraacetyl peptide)", "assay_type": "binding", "details": "AlphaScreen, Table 29; read-out: CBP IC50", "outline": "as §1", "units": {"IC50": "µM"}, "values": [
      {"compound": "CCc1ncc(-c2cc(=O)n(C)cc2-c2cnn(-c3cccc(Cl)c3C#N)c2)cn1", "note": "[Example 280, 2-chloro-6-(4-(4-(2-ethylpyrimidin-5-yl)-1-methyl-6-oxo-1,6-dihydropyridin-3-yl)-1H-pyrazol-1-yl)benzonitrile]", "IC50": "< 0.5"},
      {"compound": "CC(C)Oc1cc(=O)n(C)cc1-c1cnn([C@@H](C)c2ccccc2)c1", "note": "[Example 46, (S)-4-isopropoxy-1-methyl-5-(1-(1-phenylethyl)-1H-pyrazol-4-yl) pyridin-2(1H)-one]", "IC50": "< 0.5"},
      {"compound": "CCOc1cc(=O)n(C)cc1-c1cnn(-c2ccccc2C(=O)O)c1", "note": "[Example 249, 2-(4-(4-ethoxy-1-methyl-6-oxo-1,6-dihydropyridin-3-yl)-1H-pyrazol-1-yl)benzoic acid]", "IC50": "< 0.5"},
      {"compound": "Cn1cc(-c2cnn(Cc3ccccc3)c2)c(-c2cc[nH]c(=O)c2)cc1=O", "note": "[Example 193, 5-(1-Benzyl-1 H-pyrazol-4-yl)-1-methyl-1H,1′H-[4,4′]bipyridinyl-2,2′-dione]", "IC50": "< 0.5"},
      {"compound": "Cn1cc(-c2cc(=O)n(C)cc2-c2cnn(-c3ccccc3C(=O)NC#N)c2)cn1", "note": "[Example 289, N-cyano-2-(4-(1-methyl-4-(1-methyl-1H-pyrazol-4-yl)-6-oxo-1,6-dihydropyridin-3-yl)-1H-pyrazol-1-yl)benzamide]", "IC50": "< 0.5"},
      {"compound": "CC(c1ccccc1)n1cc(-c2cn(C)c(=O)cc2OC2CCCCC2)cn1", "note": "(stereo not drawn) [Example 52, 4-(cyclohexyloxy)-1-methyl-5-(1-(1-phenylethyl)-1H-pyrazol-4-yl) pyridin-2(1H)-one]", "IC50": "< 0.5"},
      {"compound": "CCOc1cc(=O)n(C)cc1-c1cnn(-c2ccccc2C(N)=O)c1", "note": "[Example 282, 2-(4-(4-ethoxy-1-methyl-6-oxo-1,6-dihydropyridin-3-yl)-1H-pyrazol-1-yl)benzamide]", "IC50": "< 0.5"},
      {"compound": "CC(c1ccccc1)n1cc(-c2cc(Cl)c(=O)n(C)c2)cn1", "note": "(stereo not drawn) [Example 31, 3-chloro-1-methyl-5-(1-(1-phenylethyl)-1H-pyrazol-4-yl) pyridin-2(1H)-one]", "IC50": "< 0.5"},
      {"compound": "CC(C)Oc1cc(=O)n(C)cc1-c1cnn(-c2ccccc2C#N)c1", "note": "[Example 202, 2-[4-(4-Isopropoxy-1-methyl-6-oxo-1,6-dihydro-pyridin-3-yl)-pyrazol-1-yl]-benzonitrile]", "IC50": "< 0.5"},
      {"compound": "CCOc1cc(=O)n(C)cc1-c1cnn(Cc2cccc(C(=O)OC)c2)c1", "note": "[Example 71, methyl 3-((4-(4-ethoxy-1-methyl-6-oxo-1,6-dihydropyridin-3-yl)-1H-pyrazol-1-yl)methyl)benzoate]", "IC50": "< 0.5"},
      {"compound": "CCNc1ccc(-c2cc(=O)n(C)cc2-c2cnn(-c3cccc(Cl)c3C#N)c2)cn1", "note": "[Example 342, 2-chloro-6-(4-(6-(ethylamino)-1′-methyl-6′-oxo-1′,6′-dihydro-[3,4′-bipyridin]-3′-yl)-1H-pyrazol-1-yl)benzonitrile]", "IC50": "< 0.5"},
      {"compound": "COc1cncc(-c2cc(=O)n(C)cc2-c2cnn(-c3ccccc3C#N)c2)c1", "note": "[Example 242, 2-(4-(5-methoxy-1′-methyl-6′-oxo-1′,6′-dihydro-[3,4′-bipyridin]-3′-yl)-1H-pyrazol-1-yl)benzonitrile]", "IC50": "< 0.5"},
      {"compound": "Cc1cc(-c2cnn(C(C)c3ccccc3)c2C)cn(C)c1=O", "note": "(stereo not drawn) [Example 34, 1,3-dimethyl-5-(5-methyl-1-(1-phenylethyl)-1H-pyrazol-4-yl) pyridin-2(1H)-one]", "IC50": "< 0.5"},
      {"compound": "Cn1cc(-c2cnn(-c3ccccc3C(=O)NS(C)(=O)=O)c2)c(C2CC2)cc1=O", "note": "[Example 302, N-{2-[4-(4-Cyclopropyl-1-methyl-6-oxo-1,6-dihydro-pyridin-3-yl)-pyrazol-1-yl]-benzoyl}-methanesulfonamide]", "IC50": "< 0.5"},
      {"compound": "Cn1cc(-c2cnn(-c3ccccc3C#N)c2)c(OCCN2CCOCC2)cc1=O", "note": "[Example 283, 2-(4-(1-methyl-4-(2-morpholinoethoxy)-6-oxo-1,6-dihydropyridin-3-yl)-1H-pyrazol-1-yl)benzonitrile]", "IC50": "< 0.5"},
      {"compound": "Cn1cc(-c2cnn(-c3cccc(F)c3C#N)c2)c(-c2ccc(C(F)(F)F)nc2)cc1=O", "note": "[Example 368, 2-fluoro-6-(4-(1′-methyl-6′-oxo-6-(trifluoromethyl)-1′,6′-dihydro-[3,4′-bipyridin]-3′-yl)-1H-pyrazol-1-yl)benzonitrile]", "IC50": "< 0.5"},
      {"compound": "COc1cccc(-c2cc(=O)n(C)cc2-c2cnn(-c3ccccc3C#N)c2)c1", "note": "[Example 241, 2-{4-[4-(3-Methoxy-phenyl)-1-methyl-6-oxo-1,6-dihydro-pyridin-3-yl]-pyrazol-1-yl}-benzonitrile]", "IC50": "< 0.5"},
      {"compound": "CC(c1ccccc1)n1cc(-c2cn(C)c(=O)cc2-c2ccn(C)c(=O)c2)cn1", "note": "(stereo not drawn) [Example 310, 1,1′-dimethyl-5-(1-(1-phenylethyl)-1H-pyrazol-4-yl)-[4,4′-bipyridine]-2,2′(1H,1′H)-dione]", "IC50": "< 0.5"},
      {"compound": "Cn1cc(-c2cnn(-c3cccc(F)c3C#N)c2)c(-c2ccc(N3CCCC3)nc2)cc1=O", "note": "[Example 350, 2-fluoro-6-[4-[1-methyl-6-oxo-4-(6-pyrrolidin-1-yl-3-pyridyl)-3-pyridyl]pyrazol-1-yl]benzonitrile]", "IC50": "< 0.5"},
      {"compound": "CCCNC(=O)Cn1cc(-c2cn(C)c(=O)cc2-c2ccccc2)cn1", "note": "[Example 141, 2-(4-(1-methyl-6-oxo-4-phenyl-1,6-dihydro-pyridin-3-yl)-1H-pyrazol-1-yl)-N-propylacetamide]", "IC50": "< 0.5"},
      {"compound": "Cn1cc(-c2cnn(-c3cccc(Cl)c3C#N)c2)c(-c2cnc(NCC3CC3)nc2)cc1=O", "note": "[Example 327, 2-chloro-6-(4-(4-(2-((cyclopropylmethyl)amino)pyrimidin-5-yl)-1-methyl-6-oxo-1,6-dihydropyridin-3-yl)-1H-pyrazol-1-yl)benzonitrile]", "IC50": "< 0.5"},
      {"compound": "COCCNc1ncc(-c2cc(=O)n(C)cc2-c2cnn(-c3ccccc3C#N)c2)cn1", "note": "[Example 324, 2-(4-(4-(2-((2-methoxyethyl)amino)pyrimidin-5-yl)-1-methyl-6-oxo-1,6-dihydropyridin-3-yl)-1H-pyrazol-1-yl)benzonitrile]", "IC50": "< 0.5"},
      {"compound": "CC(C)Oc1ccc(-c2cc(=O)n(C)cc2-c2cnn(-c3ccccc3C#N)c2)cn1", "note": "[Example 235, 2-[4-(6-Isopropoxy-1′-methyl-6′-oxo-1′,6′-dihydro-[3,4′]bipyridinyl-3′-yl)-pyrazol-1-yl]-benzonitrile]", "IC50": "< 0.5"},
      {"compound": "COC1CN(c2cc(=O)n(C)cc2-c2cnn(C(C)c3ccccc3)c2)C1", "note": "(stereo not drawn) [Example 58, 4-(3-methoxyazetidin-1-yl)-1-methyl-5-(1-(1-phenylethyl)-1H-pyrazol-4-yl)pyridin-2(1H)-one]", "IC50": "0.5 to 5"},
      {"compound": "Cn1cc(-c2cc(=O)n(C)cc2-c2cnn(-c3ccccc3C(=O)O)c2)cn1", "note": "[Example 208, 2-{4-[1-Methyl-4-(1-methyl-1H-pyrazol-4-yl)-6-oxo-1,6-dihydro-pyridin-3-yl]-pyrazol-1-yl}-benzoic acid]", "IC50": "< 0.5"},
      {"compound": "Cn1cc(-c2cnn(CCN3CCOCC3)c2)c(-c2ccccc2)cc1=O", "note": "[Example 130, 1-methyl-5-(1-(2-morpho-linoethyl)-1H-pyrazol-4-yl)-4-phenylpyridin-2(1H)-one]", "IC50": "< 0.5"},
      {"compound": "CCOc1cc(=O)n(C)cc1-c1cnn(-c2cc(OC)ccc2C#N)c1", "note": "[Example 182, 2-[4-(4-Ethoxy-1-methyl-6-oxo-1,6-dihydro-pyridin-3-yl)-pyrazol-1-yl]-4-methoxy-benzonitrile]", "IC50": "< 0.5"},
      {"compound": "COc1cc(-c2cc(=O)n(C)cc2-c2cnn(-c3cccc(Cl)c3C#N)c2)ccc1C", "note": "[Example 279, 2-chloro-6-(4-(4-(3-methoxy-4-methylphenyl)-1-methyl-6-oxo-1,6-dihydropyridin-3-yl)-1H-pyrazol-1-yl)benzonitrile]", "IC50": "< 0.5"},
      {"compound": "Cn1cc(-c2cnn(Cc3cccc(C#N)c3)c2)ccc1=O", "note": "[Example 4, 3-((4-(1-methyl-6-oxo-1,6-dihydropyridin-3-yl)-1H-pyrazol-1-yl)methyl)benzonitrile]", "IC50": "0.5 to 5"},
      {"compound": "CC(=O)N1CC(Oc2cc(=O)n(C)cc2-c2cnn(C(C)c3ccccc3)c2)C1", "note": "(stereo not drawn) [Example 50, 4-((1-acetylazetidin-3-yl)oxy)-1-methyl-5-(1-(1-phenylethyl)-1H-pyrazol-4-yl)pyridin-2(1H)-one]", "IC50": "< 0.5"},
      {"compound": "Cn1cc(-c2cc(=O)n(C)cc2-c2cnn(-c3ccccc3C#N)c2)ccc1=O", "note": "[Example 209, 2-[4-(1,1′-Dimethyl-6,6′-dioxo-1,6,1′,6′-tetrahydro-[3,4′]bipyridinyl-3′-yl)-pyrazol-1-yl]-benzonitrile]", "IC50": "< 0.5"},
      {"compound": "Cn1cc(-c2cnn(C3CCCCC3)c2)c(-c2ccccc2)cc1=O", "note": "[Example 125, 5-(1-cyclohexyl-1H-pyrazol-4-yl)-1-methyl-4-phenylpyridin-2(1H)-one]", "IC50": "< 0.5"},
      {"compound": "CNOc1cc(=O)n(C)cc1-c1cnn(Cc2ccccc2)c1", "note": "[Example 170, 5-(1-benzyl-1H-pyrazol-4-yl)-1-methyl-4-((methylamino)oxy)pyridin-2(1H)-one]", "IC50": "< 0.5"},
      {"compound": "CCOc1cc(=O)n(C)cc1-c1cnn(-c2ccccn2)c1", "note": "[Example 253, 4-ethoxy-1-methyl-5-(1-(pyridin-2-yl)-1H-pyrazol-4-yl)pyridin-2(1H)-one]", "IC50": "< 0.5"},
      {"compound": "CC(c1ccccc1)n1cc(-c2cc(N(C)C)c(=O)n(C)c2)cn1", "note": "(stereo not drawn) [Example 196, 3-Dimethylamino-1-methyl-5-[1-(1-phenyl-ethyl)-1H-pyrazol-4-yl]-1H-pyridin-2-one]", "IC50": "0.5 to 5"},
      {"compound": "Cn1cc(-c2cnn(-c3ccccc3C#N)c2)c(-c2ccccc2)cc1=O", "note": "[Example 212, 2-[4-(1-Methyl-6-oxo-4-phenyl-1,6-dihydro-pyridin-3-yl)-pyrazol-1-yl]-benzonitrile]", "IC50": "< 0.5"}
    ]},
    {"target": "CBP (Homo sapiens (Human), UniProt Q92793)", "experiment": "In vitro CBP inhibition (AlphaScreen, biotinylated H4-tetraacetyl peptide)", "assay_type": "binding", "details": "CBP versus BRD4", "outline": "as §1", "values": [
      {"compound": "Cn1cc(-c2cnn(Cc3ccccc3)c2)c(-n2cccc2)cc1=O", "note": "[5-(1-benzyl-1H-pyrazol-4-yl)-1-methyl-4-(1H-pyrrol-1-yl)pyridin-2(1H)-one]", "IC50 for CBP compared with BRD4 (selectivity)": "lower IC50 for CBP than for BRD4"}
    ]}
  ]
}
